Reference: patent US20050170502A1, “Methods for maintaining hepatocytes in culture and for differentiating embryonic stem cells along a hepatocyte lineage” (REGENTS OF THE UNIVERSITY OF CALIFORNIA, priority 2003, published 2005)

Tested on: mouse ES cells (ES-D3)
Test: Hepatocyte-specific gene expression in differentiated mouse ES cells, real-time quantitative RT-PCR
Settings: for albumin gene expression (effect of individual growth and differentiation factors): mouse ES cells, IMDM, collagen type I, day 33, FIG. 2A
Procedure: Mouse ES cell line ES-D3 and mouse STO fibroblasts were obtained from the American Type Culture Collection, Manassas, Va. ES cells were expanded on STO fibroblast feeder layers in Dulbecco's modified Eagle's medium (DMEM) (unless specified, cell culture supplies were from Invitrogen, Carlsbad, Calif.) containing 15% fetal bovine serum (FBS), 1 mM L-glutamine, 60 μM non-essential amino acid solution, 0.1 mM 2-mercaptoethanol, 10 mM HEPES (Sigma-Aldrich, Saint Louis, Mo.), 1400 U/ml leukemia inhibitory factor (LIF) (Chemicon International, Temecula, Calif.), and penicillin/streptomycin at standard concentrations. To prepare feeder layers, STO fibroblasts were cultured until confluent and treated with 10 μg/ml mitomycin C (Sigma-Aldrich) for 4 hours. Mitomycin C-treated STO fibroblasts were then re-seeded at a density of 7-8×10^4/cm^2 one day before plating ES cells. […] These culture conditions stimulated the formation of non-attached embryoid bodies (EBs): Five days later, EBs were placed on different substratum pre-coated 6-well tissue culture plates in various media formulations, and the expression of hepatocyte-specific genes was examined at day 8-75 (FIG. 1A). Substrata used for pre-coating included gelatin, collagen type I (Sigma-Aldrich), collagen type IV, laminin, fibronectin and poly-D-lysine (Becton Dickinson Labware, Bedford, Mass.). The following culture media were tested for ES cells differentiation: DMEM, Williams' medium E (WME), and Iscove's modified Dulbecco's medium (IMDM), all supplemented with 10 to 20% FBS, 0.3 mM monothioglycerol (Sigma-Aldrich), penicillin/streptomycin at standard concentrations, and a range of growth and differentiation factors including hepatocyte growth factor (HGF, 20 ng/ml), nerve growth factor (NGF, 100 ng/ml), epidermal growth factor (EGF, 100 ng/ml), acidic fibroblast growth factor (aFGF, 100 ng/ml), basic fibroblast growth factor (bFGF, 100 ng/ml) (Li, X. et al., J. Cell. Biol. 153:811-822 (2001)), all-trans-retinoic acid (RA, 1 μM) (Makita, T. et al., Genes. Dev. 15:889-901 (2001)), oncostatin M (OnM, 10 ng/ml) (Kamiya, A. et al., EMBO. J. 18:2127-2136 (1999)), bovine insulin (0.126 U/ml), dexamethasone (100 nM) (all from Sigma-Aldrich), and human insulin (0.126 U/ml) (Eli Lilly and Company, Indianapolis, Ind.). Growth and differentiation factors were added to the culture media at final concentrations as indicated above. In addition, EBs were also cultured in medium that was previously used to induce multipotent adult progenitor cells (MAPC) from mouse bone marrow to differentiate into functional hepatocyte-like cells (Schwartz, R. E. et al., J. Clin. Invest. 109:1291-1302 (2002)).
Total RNA was extracted with RNeasy Mini Kit (Qiagen, Valencia, Calif.). Real time quantitative RT-PCR was employed for the determination of gene expression as described in detail previously by our group (Wege, H. et al., Gastroenterology 124:432-444 (2003)). In brief, one μg RNA was used to generate cDNA after treatment with deoxyribonuclease I (Invitrogen). First-strand synthesis was performed employing the Thermoscript RT-PCR System (Invitrogen) with random hexamers. Relative mouse or human gene expression analysis (ΔΔCT) was performed by real-time quantitative PCR with the ABI Prism 7700 Sequence Detection System and SYBR PCR Green Master Mix or TaqMan PCR Master Mix (Applied Biosystems, Foster City, Calif.). Primer pairs and hybridization probes for mouse or human albumin, prealbumin (transthyretin), alphal-antitrypsin (α1-AT), glucose-6-phosphatase (G6P), cytokeratin 19 (CK19), γ-glutamyl transferase (GGT), and β-actin, were synthesized, and primer concentrations were optimized for specific amplification at 60° C. […] Expression levels were normalized using mouse β-actin or human glyceraldehyde phosphate dehydrogenase (GAPDH) as an endogenous control. Normalized expression of hepatocyte-specific genes was compared to levels detected in primary adult mouse or human hepatocytes.

Row | Compound | albumin gene expression (effect of individual growth and differentiation factors) | production of hepatocyte-specific proteins compared with bovine insulin (also in murine ES cells)
1 | CC1=C(/C=C/C(C)=C/C=C/C(C)=C/C(=O)O)C(C)(C)CCC1 [RA, all-trans-retinoic acid] | only minor positive or even negative effects | –
2 | C[C@@H]1C[C@H]2[C@@H]3CCC4=CC(=O)C=C[C@]4(C)[C@@]3(F)[C@@H](O)C[C@]2(C)[C@@]1(O)C(=O)CO [dexamethasone, 9-fluoro-11β,17,21-trihydroxy-16α-methylpregna-1,4-diene-3,20-dione] | most effective | –
3 | HGF: hepatocyte growth factor | only minor positive or even negative effects | –
4 | NGF: nerve growth factor | only minor positive or even negative effects | –
5 | aFGF: acidic fibroblast growth factor | only minor positive or even negative effects | –
6 | bFGF: basic fibroblast growth factor | only minor positive or even negative effects | –
7 | hEGF: human epidermal growth factor (NSDSECPLSHDGYCLHDGVCMYIEALDKYACNCVVGYIGERCQYRDLKWWELR; UniProt P01133 971-1023, looked up) | only minor positive or even negative effects | –
8 | human insulin: human insulin (Eli Lilly and Company), growth factor added to the culture medium | most effective | higher production
9 | mEGF: mouse epidermal growth factor (NSYPGCPSSYDGYCLNGGVCMHIESLDSYTCNCVIGYSGDRCQTRDLRWWELR; not fully specified; Epidermal growth factor; UniProt P01132 977-1029, looked up) | only minor positive or even negative effects | –
